Experimental findings from patent US6143740A, “Heregulin antagonists and methods for their use” (Georgetown University, priority 1999, dated 2000) are described below.

Assay [1] relates to 32D/erbB-4 cells. Put plainly: HRG-dependent cell proliferation, 32D/erbB-4. The class given is cell-based, murine. From the text:
(§1) Inhibition of HRG-dependent cell proliferation--Since most human cancer cells express more than one of the erbB receptors and different heterodimerization might alter the binding affinity and/or internalization, it is difficult to define the exact correlation of the receptor expression and the antagonist activity of the small molecules. To overcome this difficulty, a 32D cell (murine, hematopoietic) model system, in which the 32D cells were transfected with erbB4 receptor, can be utilized. […] 32t cells transfected with erbB-4 will proliferate in the presence of either HRG or IL-3. With this 32D cell model system, compounds of the invention can be tested for their antagonist activity and specificity in both HRG-dependent and HRG-independent growth.

The test system of assay [2] is 32D/erbB-4 cells. Briefly: IL-3 stimulated (HRG-independent) growth, 32D/erbB-4. The assay is classed as cell-based, murine.
From the text: as §1

For assay [3], the system named is HRG-induced tyrosine phosphorylation (MDA-453 cells). Briefly: Inhibition of HRG-induced phosphorylation, dose dependence in MDA-453 cells. The class given is cell-based. To be noted: 10 nM HRG. Here is the method: (§2) The ability of compounds of the invention to block HRG-induced phosphorylation was tested by co-incubation with 10 nM HRG (maximal induction).
Assay [4] relates to EGF-mediated signaling pathway (MDA-468 cells). Briefly: Specificity: incubation with EGF in EGFR overexpressing cell line MDA-468. The assay is classed as cell-based.
Another assay relates to 32D cells. Put plainly: IL-3 stimulated (HRG-independent) growth, 32D. The assay is classed as cell-based, murine.
From the text: as §1

The test system of the next assay is HRG receptor. Put plainly: Structure-activity relationship of rifamycin analogues as heregulin antagonists (FIGS. 6 and 7). The assay is classed as cell-based. As to conditions: substituent at C9 position. Here is the method:
Replacement of residues 177 and 178 by an acetyl group decreases the binding affinity of HRG to its receptor by more than 50-fold (Barbacci et al., J. Bio. Chem. 1995; 270(16)9585-9).
The structure-activity relationships of rifamycin analogues also indicates the importance of this region (FIGS. 6 and 7).
Inhibition of receptor binding--To investigate whether a compound can inhibit binding between HRG and its receptors, binding assays were performed using ^125 I labeled EGF domain of HRG-β1 (HED-β1). The binding affinity of iodine-labeled HED-β1 in T47D or MDA-453 cells was pre-determined. Unlabeled compounds were co-incubatedwith the radiolabeled ligand for 2 hours at 4° C., and the cells were washed 3 times with an ice-cold binding buffer. The labeled cells were lysed, and counted in a gamma-counter. Compounds that displaced more than 50% of labeled HED-β1 from the HRG-receptors were then re-examined in a dose-dependent manner.
as §2

As for `COC1C=COC2(C)Oc3c(C)c(O)c4c(O)c(c(C=NN5C(C)CN(Cc6cccc(O)c6)CC5C)c(O)c4c3C2=O)NC(=O)C(C)=CC=CC(C)C(O)C(C)C(O)C(C)C(OC(C)=O)C1C` (stereo not drawn) [Compound A1], the “HRG-dependent cell growth inhibition” value with 32D/erbB-4 cells [1] is reported as “inhibit only the HRG-dependent cell growth”. Moreover, the “inhibition of IL-3 stimulated growth” value with 32D/erbB-4 cells [2] and in the assay on 32D cells was “not IL-3 stimulated growth” throughout. Also, the “inhibition of HRG-induced phosphorylation” value in assay [3] is “dose-dependent inhibition”. Moreover, in assay [4], the “effect on EGF-mediated signaling pathway” value is reported as “no or very little effect”.

As for `COC1C=COC2(C)Oc3c(C)c(O)c4c(O)c(c(C=NN(C)C56CC7CC(CC(C7)C5)C6)c(O)c4c3C2=O)NC(=O)C(C)=CC=CC(C)C(O)C(C)C(O)C(C)C(OC(C)=O)C1C` (stereo not drawn) [Compound A3], the “inhibition of HRG-induced phosphorylation” value in assay [3] is given as “dose-dependent inhibition”. Further, the “effect on EGF-mediated signaling pathway” value in assay [4] is recorded as “no or very little effect”. Also, the “antagonist activity (structure-activity, FIGS. 6 and 7)” value with HRG receptor is “fairly good activities”.

For the compound `COC1C=COC2(C)Oc3c(C)c(O)c4c(O)c(c(C=NN5CCCCCCCCCCCCCCCCC5)c(O)c4c3C2=O)NC(=O)C(C)=CC=CC(C)C(O)C(C)C(O)C(C)C(OC(C)=O)C1C` (stereo not drawn) [Compound A4], in the assay on HRG receptor, the “antagonist activity (structure-activity, FIGS. 6 and 7)” value is given as “fairly good activities”.
